Measurements from patent publication US5849259A, “3-,8-substituted deuteroporphyrin derivatives, pharmaceutical agents containing the latter and process for their production” (priority 1992, dated 1998).

Columns and labels:
Type in all cases: in vivo, nude mice (Balb/c nu/nu)
[1] = Tissue concentrations by ICP-AES after 0.1 mmol/kg i.v. in nude mice with subcutaneously implanted colon cancers (HT29, WiDr)
Method: (§1) a) 9 nude mice (Balb/c nu/nu) with subcutaneously implanted colon cancers (HT29, WiDr) were each administered by i.v. 0.1 mmol/kg of the mesoporphyrin derivative of example 1b (10 mmol/l dissolved in bidistilled water, pH 7.2, 37° C.). After 0.5, 3 and 24 hours the animals were killed and dissected. The tissue concentrations were determined after corresponding working-up (HNO3 conc.) by ICP-AES and calculated for % of the administered dose per gram of tissue net weight.
e) 9 nude mice (Balb/c nu/nu) with subcutaneously implanted colon cancers (HT29 and WiDr) were each administered by i.v. 0.1 mmol/kg of the deuteroporphyrin derivative of the compound according to example 1c (10 mmol/l dissolved in bidistilled water, pH 7.2, 37° C.). After 0.5, 3 and 24 hours, the animals were killed and dissected. The tissue concentrations were determined after corresponding working-up (HNO3 conc.) by ICP-AES and calculated for % of the administered dose per gram of tissue net weight. Moreover, tissue relaxation times T1 and T2 were determined (Bruker minispec pc 120).
as §1, with “9” for “a) 9”, “8e” for “1b”, “hours,” for “hours”
as §1, with “9” for “a) 9”, “0.1.” for “0.1”, “16f” for “1b”, “0.5 and” for “0.5,”, “3” for “3 and 24”
as §1, with “9” for “a) 9”, “18d” for “1b”, “0.5 and” for “0.5,”, “hours,” for “and 24 hours”
as §1, with “9” for “a) 9”, “19e” for “1b”, “hours,” for “hours”

[2] = tested on: HT29 and WiDr colon cancers; assay: Enhancement (signal intensity change, NMR imaging) in tissues with HT29/WiDr tumors, Example 22 Table 2
[3] = tested on: HT29 and WiDr colon cancer; assay: Signal intensity change in tissues of tumor-bearing (HT29 and WiDr colon cancer) nude mice, example 2c, 0.05 mmol/kg; details: 0.05 mmol/kg i.v.; for enhancement, HT29 / enhancement, Kidneys / enhancement, Liver / enhancement, Muscle / enhancement, WiDr: time 0 = 100
Method: On a Bruker Biospec nuclear spin tomograph (2.35 Tesla), the signal intensity change in various tissues of tumor-bearing (HT29 and WiDr colon cancer) nude mice (Balb/c nu/nu) was studied after i.v. administration of 0.05 mmol/kg of the compound according to example 2c (10 mmol/l, pH 7.2; 37° C. in bidistilled water). The measurement takes place with a multi slice single echo sequence (MSSE). Imaging parameters: TR: 400 ms, TE: 30 ms, layer thickness: 4 mm, number of averages: 4/slice, matrix 256^2. After a preliminary image, 0.05 mmol/kg of the substance was administered and the signal intensity change (relative to an internal standard) was studied 5, 30, 60, 120 and 180 minutes

[4] = Tissue concentrations by ICP-AES after 0.1 mmol/kg i.v. in nude mice with subcutaneously implanted colon cancers (HT29, WiDr); details: 2 hours p.i. (so in the source)

13,17-Bis-(15-carboxylato-6-oxo-8,11,14-tris-(carboxylatomethyl)-5,8,11,14-tetraazapentadecyl]-3,8-diethyl-2,7,12,18-tetramethylporphyrin, digadolinium complex, disodium salt [Example 19e]
decrease of tissue concentration except liver, relative to 0.5 hour p.i. ([1]; within 24 hours): 5-20 factor

N,N'-Bis[9-carboxylato-2,5-bis(carboxylatomethyl)-8-(ethoxycarboxymethyl-2,5,8-triazanonyl-carbamoyl]-mesoporphyrin-IX-13,17-diamide, digadolinium complex [Example 1b]
enhancement, HT29 ([2]; 5 min): 1.36
enhancement, Kidneys ([2]; 5 min): 2.89
enhancement, Liver ([2]; 5 min): 1.43
enhancement, Muscle ([2]; 5 min): 1.41
enhancement, WiDr ([2]; 5 min): 1.16
signal intensity change, liver tissue ([2]; 5 minutes p.i.): marked signal intensity increase
enhancement, HT29 ([2]; 15 min): 1.49
enhancement, Kidneys ([2]; 15 min): 2.70
enhancement, Liver ([2]; 15 min): 1.43
enhancement, Muscle ([2]; 15 min): 1.41
enhancement, WiDr ([2]; 15 min): 1.16
enhancement, HT29 ([2]; 30 min): 1.54
enhancement, Kidneys ([2]; 30 min): 2.65
enhancement, Liver ([2]; 30 min): 1.40
enhancement, Muscle ([2]; 30 min): 1.39
enhancement, WiDr ([2]; 30 min): 1.18
enhancement, HT29 ([2]; 45 min): 1.55
enhancement, Kidneys ([2]; 45 min): 2.79
enhancement, Liver ([2]; 45 min): 1.42
enhancement, Muscle ([2]; 45 min): 1.40
enhancement, WiDr ([2]; 45 min): 1.25
enhancement, HT29 ([2]; 60 min): 1.59
enhancement, Kidneys ([2]; 60 min): 2.56
enhancement, Liver ([2]; 60 min): 1.38
enhancement, Muscle ([2]; 60 min): 1.29
enhancement, WiDr ([2]; 60 min): 1.05
enhancement, HT29 ([2]; 75 min): 1.97
enhancement, Kidneys ([2]; 75 min): 2.53
enhancement, Liver ([2]; 75 min): 1.51
enhancement, Muscle ([2]; 75 min): 1.47
enhancement, WiDr ([2]; 75 min): 1.23
maximum enhancement, liver ([2]; 75 minutes p.i.): +50%
maximum enhancement, tumor ([2]; 75 minutes p.i.): +100%
enhancement, HT29 ([2]; 90 min): 1.51
enhancement, Kidneys ([2]; 90 min): 2.40
enhancement, Liver ([2]; 90 min): 1.43
enhancement, Muscle ([2]; 90 min): 1.50
enhancement, WiDr ([2]; 90 min): 1.28
enhancement, HT29 ([2]; 120 min): 1.64
enhancement, Kidneys ([2]; 120 min): 2.15
enhancement, Liver ([2]; 120 min): 1.47
enhancement, Muscle ([2]; 120 min): 1.34
enhancement, WiDr ([2]; 120 min): 1.22
enhancement, HT29 ([2]; 24 hours): 1.05
enhancement, Kidneys ([2]; 24 hours): 1.51
enhancement, Liver ([2]; 24 hours): 1.19
enhancement, Muscle ([2]; 24 hours): 1.24
enhancement, WiDr ([2]; 24 hours): 1.64
signal intensity change, tumor ([2]; after 30 minutes): marked signal intensity increase
signal intensity change, kidneys ([2]; mouse, in vivo): stronger signal intensity change
signal intensity change, muscle ([2]; reference tissue): only a small change

N,N'-Bis[13-carboxylato-4-oxo-6,8,12-tris-(carboxylatomethyl)-3,6,9,12-tetraazatridecyl]-mesoporphyrin--IX-3,17-diamide, digadolinium complex, disodium salt [Example 2c]
time of greatest signal intensity difference [3]: 2 hours p.i. or 3 hours p.i.
enhancement, HT29 ([3]; 5 min): 171 ± 14
enhancement, Kidneys ([3]; 5 min): 169 ± 45
enhancement, Liver ([3]; 5 min): 173 ± 31
enhancement, Muscle ([3]; 5 min): 143 ± 23
enhancement, WiDr ([3]; 5 min): 165 ± 39
signal intensity change, liver tissue and both tumors ([3]; 5 minutes p.i.): marked signal intensity increase
enhancement, HT29 ([3]; 30 min): 169 ± 14
enhancement, Kidneys ([3]; 30 min): 211 ± 33
enhancement, Liver ([3]; 30 min): 157 ± 30
enhancement, Muscle ([3]; 30 min): 157 ± 29
enhancement, WiDr ([3]; 30 min): 170 ± 32
enhancement, HT29 ([3]; 60 min): 168 ± 12
enhancement, Kidneys ([3]; 60 min): 207 ± 31
enhancement, Liver ([3]; 60 min): 170 ± 16
enhancement, Muscle ([3]; 60 min): 120 ± 8
enhancement, WiDr ([3]; 60 min): 153 ± 33
enhancement, HT29 ([3]; 120 min): 178 ± 32
enhancement, Kidneys ([3]; 120 min): 191 ± 37
enhancement, Liver ([3]; 120 min): 179 ± 37
enhancement, Muscle ([3]; 120 min): 126 ± 10
enhancement, WiDr ([3]; 120 min): 153 ± 0
enhancement, HT29 ([3]; 180 min): 136 ± 23
enhancement, Kidneys ([3]; 180 min): 136 ± 25
enhancement, Liver ([3]; 180 min): 167 ± 7
enhancement, Muscle ([3]; 180 min): 112 ± 9
enhancement, WiDr ([3]; 180 min): 117 ± 33
signal intensity change, muscle ([3]; reference tissue): only a small change
signal intensity change, kidneys ([3]; up to 2 hours p.i.): even stronger signal intensity change

Zinc(II)-{N,N'-bis[11-carboxylato-2-oxo-4,7,10-tris-(carboxylatomethyl)-1,4,7,10-tetraazaundecyl]-3,8-bis-(2-(naphth-1-yl)-ethyl)-deuteroporphyrin-IX-13,17-diamide}, digadolinium complex, disodium salt [Example 18d]
tissue concentration, HT29 tumor ([1]; 0.5 hour p.i.): 1.48 ± 0.28 % of the administered dose per gram of tissue net weight
tissue concentration, WiDr tumor ([1]; 0.5 hour p.i.): 1.94 ± 0.78 % of the administered dose per gram of tissue net weight
tissue concentration, blood ([1]; 0.5 hour p.i.): 24.44 ± 2.32 % of the administered dose per gram of tissue net weight
tissue concentration, intestine ([1]; 0.5 hour p.i.): 4.93 ± 0.90 % of the administered dose per gram of tissue net weight
tissue concentration, kidneys ([1]; 0.5 hour p.i.): 11.74 ± 2.38 % of the administered dose per gram of tissue net weight
tissue concentration, lung ([1]; 0.5 hour p.i.): 17.70 ± 2.50 % of the administered dose per gram of tissue net weight
tissue concentration, muscle ([1]; 0.5 hour p.i.): 0.89 ± 0.17 % of the administered dose per gram of tissue net weight
tissue concentration, rest of body ([1]; 0.5 hour p.i.): 2.38 ± 0.27 % of the administered dose per gram of tissue net weight
tissue concentration, skin ([1]; 0.5 hour p.i.): 3.71 ± 0.52 % of the administered dose per gram of tissue net weight
tissue concentration, spleen ([1]; 0.5 hour p.i.): 7.52 ± 0.40 % of the administered dose per gram of tissue net weight
tissue concentration, HT29 tumor ([1]; 3 hours p.i.): 3.53 ± 0.52 % of the administered dose per gram of tissue net weight
tissue concentration, WiDr tumor ([1]; 3 hours p.i.): 4.50 ± 0.98 % of the administered dose per gram of tissue net weight
tissue concentration, blood ([1]; 3 hours p.i.): 16.95 ± 1.53 % of the administered dose per gram of tissue net weight
tissue concentration, intestine ([1]; 3 hours p.i.): 2.31 ± 0.28 % of the administered dose per gram of tissue net weight
tissue concentration, kidneys ([1]; 3 hours p.i.): 20.41 ± 1.88 % of the administered dose per gram of tissue net weight
tissue concentration, liver ([1]; 3 hours p.i.): 16.89 ± 1.15 % of the administered dose per gram of tissue net weight
tissue concentration, lung ([1]; 3 hours p.i.): 17.56 ± 3.34 % of the administered dose per gram of tissue net weight
tissue concentration, muscle ([1]; 3 hours p.i.): 1.04 ± 0.06 % of the administered dose per gram of tissue net weight
tissue concentration, rest of body ([1]; 3 hours p.i.): 2.43 ± 0.13 % of the administered dose per gram of tissue net weight
tissue concentration, skin ([1]; 3 hours p.i.): 4.46 ± 0.53 % of the administered dose per gram of tissue net weight
tissue concentration, spleen ([1]; 3 hours p.i.): 10.82 ± 0.87 % of the administered dose per gram of tissue net weight
tissue concentration, liver [4]: ~17 % of the administered dose per
